# In US12129237B2, “Substituted diaminocarboxamide and diaminocarbonitrile pyrimidines, compositions thereof, and methods of treatment therewith” (SIGNAL PHARMACEUTICALS, LLC, priority 2011, dated 2024):
# Molecular target: T1, JNK1 (Homo sapiens, UniProt P45983)
# T1 construct: purchased Carna Biosciences
# Assay: JNK1 biochemical assays (one or more of: time resolved fluorescence, Z'-LYTE Cascade, radioactive)
# Conditions: Table 2; JNK1 IC50 activity level; read-out: Act. Level
# T1 sequence (P45983 whole entry): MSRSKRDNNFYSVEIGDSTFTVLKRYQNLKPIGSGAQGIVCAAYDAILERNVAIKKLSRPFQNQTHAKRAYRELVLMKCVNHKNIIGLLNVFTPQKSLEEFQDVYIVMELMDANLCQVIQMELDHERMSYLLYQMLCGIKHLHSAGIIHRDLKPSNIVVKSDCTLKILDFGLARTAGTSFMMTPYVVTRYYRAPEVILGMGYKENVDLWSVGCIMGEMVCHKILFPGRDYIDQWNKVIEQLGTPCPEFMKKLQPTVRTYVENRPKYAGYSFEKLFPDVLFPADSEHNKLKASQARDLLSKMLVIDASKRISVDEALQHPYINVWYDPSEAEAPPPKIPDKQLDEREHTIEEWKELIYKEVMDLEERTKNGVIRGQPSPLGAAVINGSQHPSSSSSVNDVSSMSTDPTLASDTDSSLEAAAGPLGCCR
row,Structure (SMILES),IC50
1,"CC(CNc1ncc(C(N)=O)c(Nc2ccccc2)n1)c1ccccc1 (stereo not shown) [Example B-72, 4-(phenylamino)-2-(2-phenylpropylamino)pyrimidine-5-carboxamide]",200 to 800 nM
2,"CCOC(=O)N1CCC(Nc2ncc(C(N)=O)c(Nc3ccccc3)n2)CC1 [Example B-48, ethyl 4-(5-carbamoyl-4-(phenylamino)pyrimidin-2-ylamino)piperidine-1-carboxylate]",< 200 nM
3,"COc1ccccc1CNc1ncc(C(N)=O)c(Nc2ccccc2)n1 [Example B-60, 2-(2-methoxybenzylamino)-4-(phenylamino)pyrimidine-5-carboxamide]",200 to 800 nM

# Same assay, conditions: Table 3; JNK1 IC50 activity level; read-out: Act. Level
row,Structure (SMILES),IC50
1,"N#Cc1cnc(N[C@H]2CC[C@H](OC(F)F)CC2)nc1N[C@@H]1CCCC[C@H](O)C1 [Example C-32, 2-((1r,4R)-4-(difluoromethoxy)cyclohexylamino)-4-((1R,3S)-3-hydroxycycloheptylamino) pyrimidine-5-carbonitrile]",< 200 nM
2,"N#Cc1cnc(NC2CCC(F)(F)CC2)nc1N[C@@H]1CCC[C@@H]1CO [Example C-64, 2-(4,4-difluorocyclohexylamino)-4-((1R,2S)-2-(hydroxymethyl)cyclopentylamino) pyrimidine-5-carbonitrile]",200 to 800 nM
3,"CCO[C@H]1CC[C@H](Nc2ncc(C#N)c(N[C@@H]3CCC[C@](C)(O)C3)n2)CC1 [Example C-28, 2-((1r,4R)-4-ethoxycyclohexylamino)-4-((1R,3S)-3-hydroxy-3-methylcyclohexylamino) pyrimidine-5-carbonitrile]",< 200 nM
4,"[2H]C([2H])([2H])O[C@H]1CC[C@H](Nc2ncc(C#N)c(N[C@@H]3CCC[C@](C)(O)C3)n2)CC1 [Example C-56, 4-((1R,3S)-3-hydroxy-3-methylcyclohexylamino)-2-((1r,4R)-4-((^2H3)methyloxy)cyclohexyl-amino)pyrimidine-5-carbonitrile]",< 200 nM
5,"CO[C@H]1CC[C@H](Nc2ncc(C#N)c(N[C@@H]3CCC[C@@H]3CO)n2)CC1 [Example C-16, 4-((1R,2S)-2-(hydroxymethyl)cyclopentylamino)-2-((1r,4R)-4-methoxycyclohexylamino) pyrimidine-5-carbonitrile]",< 200 nM
6,"C[C@@H]1CC[C@@H](Nc2nc(NC3CCC3)ncc2C#N)C[C@H]1O [Example C-65, 2-(cyclobutylamino)-4-((1R,3R,4R)-3-hydroxy-4-methylcyclohexylamino) pyrimidine-5-carbonitrile]",< 200 nM

# Same assay, conditions: one or more of the JNK1 biochemical assays; read-out: Act. Level (JNK1 IC50 activity level)
row,Structure (SMILES),IC50
1,"CCO[C@H]1CC[C@H](Nc2ncc(C(N)=O)c(NC(C)(C)C(C)(C)C)n2)CC1 [Example 332, 2-((1r,4r)-4-ethoxycyclohexylamino)-4-(2,3,3-trimethylbutan-2-ylamino)pyrimidine-5-carboxamide]",< 200 nM
2,"CC(C)Nc1nc(NC23CCC(O)(CC2)CC3)ncc1C(N)=O [Example 202, 2-(4-hydroxybicyclo[2.2.2]octan-1-ylamino)-4-(isopropylamino)pyrimidine-5-carboxamide]",< 200 nM
3,"NC(=O)c1cnc(N[C@H]2CC[C@H](O)CC2)nc1NCC1CCC1 [Example 221, 4-(cyclobutylmethylamino)-2-((1r,4r)-4-hydroxycyclohexylamino)pyrimidine-5-carboxamide]",< 200 nM
4,"NC(=O)c1cnc(NC2CCCC2)nc1N[C@@H]1CCC[C@H](O)C1 [Example 439, 2-(cyclopentylamino)-4-((1R,3S)-3-hydroxycyclohexylamino)pyrimidine-5-carboxamide]",< 200 nM
5,"CC1(Nc2nc(NC34CCC(O)(CC3)C4)ncc2C(N)=O)CCCC1 [Example 446, 2-(4-hydroxybicyclo[2.2.1]heptan-1-ylamino)-4-(1-methylcyclopentylamino)pyrimidine-5-carboxamide]",< 200 nM
6,"NC(=O)c1cnc(N[C@H]2CC[C@H](O)CC2)nc1NC1CC(F)(F)C1 [Example 217, 4-(3,3-difluorocyclobutylamino)-2-((1r,4r)-4-hydroxycyclohexylamino)pyrimidine-5-carboxamide]",< 200 nM
7,"CCC(C)(CC)Nc1ncc(C(N)=O)c(N[C@@H]2CC[C@@H](C)[C@H](O)C2)n1 [Example 345, 4-((1R,3R,4R)-3-hydroxy-4-methylcyclohexylamino)-2-(3-methylpentan-3-ylamino)pyrimidine-5-carboxamide]",< 200 nM
8,"CCO[C@H]1CC[C@H](Nc2ncc(C(N)=O)c(NC3(CC)CCCC3)n2)CC1 [Example 464, 2-((1r,4r)-4-ethoxycyclohexylamino)-4-(1-ethylcyclopentylamino)pyrimidine-5-carboxamide]",< 200 nM
9,"CO[C@H]1CC[C@H](Nc2ncc(C(N)=O)c(N[C@@H](C)C(C)(C)C)n2)CC1 [Example 278, 4-((S)-3,3-dimethylbutan-2-ylamino)-2-((1r,4S)-4-methoxycyclohexylamino)pyrimidine-5-carboxamide]",< 200 nM
10,"NC(=O)c1cnc(N[C@H]2CC[C@H](O)CC2)nc1NC1COC1 [Example 235, 2-((1r,4r)-4-hydroxycyclohexylamino)-4-(oxetan-3-ylamino)pyrimidine-5-carboxamide]",< 200 nM
11,"CC(C)CC(C)(C)Nc1nc(N[C@H]2CC[C@H](O)CC2)ncc1C(N)=O [Example 369, 4-(2,4-dimethylpentan-2-ylamino)-2-((1r,4r)-4-hydroxycyclohexylamino)pyrimidine-5-carboxamide]",< 200 nM
12,"NC(=O)c1cnc(N[C@H]2CC[C@H](OC3CC3)CC2)nc1NC12CCC(C1)C2 [Example 487, 4-(bicyclo[2.1.1]hexan-1-ylamino)-2-((1r,4r)-4-cyclopropoxycyclohexylamino)pyrimidine-5-carboxamide]",< 200 nM
13,"C[C@@H]1CC[C@@H](Nc2nc(NC34CC(C)(C3)C4)ncc2C(N)=O)C[C@H]1O [Example 396, 4-((1R,3R,4R)-3-hydroxy-4-methylcyclohexylamino)-2-(3-methylbicyclo[1.1.1]pentan-1-ylamino)pyrimidine-5-carboxamide]",< 200 nM
14,"CO[C@H]1CC[C@H](Nc2ncc(C(N)=O)c(NC3CCC3C)n2)CC1 (stereo partly shown) [Example 255, 2-((1r,4r)-4-methoxycyclohexylamino)-4-(2-methylcyclobutylamino)pyrimidine-5-carboxamide]",< 200 nM
15,"CC1CCC1Nc1nc(N[C@H]2CC[C@H](OCC(F)(F)F)CC2)ncc1C(N)=O (stereo partly shown) [Example 265, 4-(2-methylcyclobutylamino)-2-((1r,4r)-4-(2,2,2-trifluoroethoxy)cyclohexylamino)pyrimidine-5-carboxamide]",< 200 nM
16,"CC1(Nc2ncc(C(N)=O)c(N[C@@H]3CCC[C@H](O)C3)n2)CCC1 [Example 354, 4-((1R,3S)-3-hydroxycyclohexylamino)-2-(1-methylcyclobutylamino)pyrimidine-5-carboxamide]",< 200 nM
17,"CC[C@H](Nc1nc(N[C@H]2CC[C@H](OC)CC2)ncc1C(N)=O)C1CC1 [Example 372, 4-((S)-1-cyclopropylpropylamino)-2-((1r,4S)-4-methoxycyclohexylamino)pyrimidine-5-carboxamide]",< 200 nM

# Same assay, conditions: tested in one or more of the JNK1 biochemical assays; read-out: Act. Level (JNK1 biochemical assay IC50 activity level)
row,Structure (SMILES),IC50
1,"CN(C)C(=O)[C@H]1CC[C@H](Nc2ncc(C(N)=O)c(N[C@@H]3CCC[C@H](O)C3)n2)CC1 [Example A-27, 2-((1r,4R)-4-(dimethylcarbamoyl)cyclohexylamino)-4-((1R,3S)-3-hydroxycyclohexylamino)pyrimidine-5-carboxamide]",< 200 nM
2,"NC[C@H]1CC[C@@H](Nc2nc(NC3CCOCC3)ncc2C(N)=O)CC1 [Example A-108, 4-((1s,4s)-4-(aminomethyl)cyclohexylamino)-2-(tetrahydro-2H-pyran-4-ylamino)pyrimidine-5-carboxamide]",< 200 nM
3,"NC(=O)c1cnc(NC2CCOCC2)nc1N[C@@H]1CCC[C@H](O)C1 [Example A-57, 4-((1R,3S)-3-hydroxycyclohexylamino)-2-(tetrahydro-2H-pyran-4-ylamino)pyrimidine-5-carboxamide]",< 200 nM
4,"NC(=O)c1cnc(NC2CC2)nc1N[C@H]1CC[C@@H](CO)CC1 [Example A-136, 2-(cyclopropylamino)-4-((1s,4s)-4-(hydroxymethyl)cyclohexylamino)pyrimidine-5-carboxamide]",200 to 800 nM
5,"CCC(=O)N1CCC(Nc2nc(N[C@H]3CC[C@H](O)CC3)ncc2C(N)=O)CC1 [Example A-90, 2-((1r,4r)-4-hydroxycyclohexylamino)-4-(1-propionylpiperidin-4-ylamino)pyrimidine-5-carboxamide]",< 200 nM
6,"CO[C@H]1CC[C@H](Nc2ncc(C(N)=O)c(N[C@H]3CCCC[C@@](C)(O)C3)n2)CC1 [Example A-185, 4-((1S,3R)-3-hydroxy-3-methylcycloheptylamino)-2-((1r,4S)-4-methoxycyclohexylamino)pyrimidine-5-carboxamide]",< 200 nM
7,"CO[C@H]1CC[C@H](Nc2ncc(C(N)=O)c(N[C@H]3CC[C@H](O)CC3)n2)CC1 [Example A-34, 4-((1r,4r)-4-hydroxycyclohexylamino)-2-((1r,4r)-4-methoxycyclohexylamino)pyrimidine-5-carboxamide]",< 200 nM
8,"CC(C)CNc1nc(N[C@H]2CC[C@H](O)CC2)ncc1C(N)=O [Example A-88, 2-((1r,4r)-4-hydroxycyclohexylamino)-4-(isobutylamino)pyrimidine-5-carboxamide]",< 200 nM
9,"CCO[C@H]1CC[C@@H](Nc2nc(NC3CCC3)ncc2C(N)=O)CC1 [Example A-135, 2-(cyclobutylamino)-4-((1s,4s)-4-ethoxycyclohexylamino)pyrimidine-5-carboxamide]",200 to 800 nM
10,"C[C@@H]1CC[C@@H](Nc2nc(N[C@H]3CC[C@H](O)CC3)ncc2C(N)=O)C[C@H]1O [Example A-179, 4-((1R,3R,4R)-3-hydroxy-4-methylcyclohexylamino)-2-((1r,4R)-4-hydroxycyclohexylamino)pyrimidine-5-carboxamide]",< 200 nM
11,"NC(=O)c1cnc(NC2CCC(F)(F)CC2)nc1N[C@@H]1CCC[C@H]1O [Example A-5, 2-(4,4-difluorocyclohexylamino)-4-((1R,2R)-2-hydroxycyclopentylamino)pyrimidine-5-carboxamide]",< 200 nM
